Values after ≈ are worked out from the molar mass of the structure shown. One block for each molecule: values may come before it.
How the values were obtained:
[1] = Determination of solubility in synthetic sebum; format: physicochemical; settings: oil or lipid, thermodynamic from solid, 32° C., agitated overnight, HPLC, read-out: Solubility in Liquid Synthetic Sebum
Experimental: Compounds described herein can be tested to evaluate their solubility in lipids. To determine the solubility, a synthetic sebum mixture was used. More specifically, approximately 5 mg of a compound was added into 1.5 ml eppendorf tubes, which was then combined with 0.1 ml of synthetic sebum and then briefly vortexed. Mixtures were placed samples in a shaker pre-heated to 32° C. and then agitated overnight. Prior to sampling for HPLC analysis, tubes were placed in an eppendorf centrifuge and spun at 13000 rpm for 5 min to pellet the insoluble drug portion. Following centrifugation, 20 ul of the top portion of the soluble fraction was sampled, in triplicate, into a 2 ml HPLC vial for analysis and the mass recorded. One ml of THF was then added to each vial to solubilize sebum. To determine their concentrations, HPLC analysis of all compounds was carried out under the same running conditions.

[2] = tested on: hamster ear sebaceous glands; assay: Hamster ear sebaceous gland model, repeat topical application; format: in vivo, Syrian golden hamster
Experimental: The Syrian golden hamster ([…]) ear sebaceous gland model was used to evaluate the effect of repeat application of TOFA and TOFA analogs. Male animals were employed since they have larger sebaceous glands than females a consequence of their higher endogenous levels of androgenic hormones. To define compound effects, cross-sections prepared from hamster ears were treated with the neutral lipid-specific stain Oil Red O. Staining results were compared to the untreated ear of the same animal in order to account for any changes in the overall physiological state of the animal as well as potential systemic effects stemming from local drug application.
Typically, compounds were prepared and applied in 40% dimethyl acetamide (DMA)/30% acetone/30% ethanol (vehicle). Animals were typically 10-12 weeks of age and 100-150 g bodyweight at the start of the experiment. Treatment groups consisted of 5-8 animals. Non-anesthetized hamsters were administered the test material onto the ventral surface of the right ear using a pipette at a volume of 20 μl per ear. Materials were gently massaged into the treatment site with a gloved finger for approximately 15 sec. Hamsters received treatment once daily for 15-28 consecutive days. Application of the test articles occurred within the same 4-hour period on each application day. The left ear remained untreated and served as an internal control site. Animals were evaluated daily for general appearance and potential clinical signs related to treatment such as edema, erythema, discoloration or other changes to the ears. Hamsters were also assessed for general health by coat appearance, behavior, and activity level.
Animals were euthanized by CO2 asphyxiation approximately 16-20 h following the final (21st) application. Tissue samples for sebaceous gland analysis were subsequently taken by histology personnel. The right (treated) and left (untreated) ears were carefully removed from euthanized hamsters. A 3.5 mm punch biopsy of the treated ear was marked with a marking dye on the ventral surface. A punch biopsy of the untreated ear was marked with a separate tissue-marking dye on the ventral surface. Tissues were embedded in a labeled mold filled with “Neg 50” cryo-embedding medium and frozen on liquid nitrogen. These blocks were sequentially wrapped in Parafilm® then aluminum foil for storage at −70° C. until required.
To assess sebaceous gland status, ear cross-sections were initially cut at a thickness of approximately 8 μm onto glass slides and immediately fixed with 10% buffered formalin. Sections were stained with the lipid-specific Oil Red O dye by standard methods, covered with Faramount (Dakocytomation, Ca) acrylic mounting medium, cover slipped and then allowed to set. […] Tissue sections stained with Oil Red O were viewed with a Spot RT digital camera mounted on an Olympus BX60 microscope. An image of the section was taken using the 4× microscope objective. The image was saved using the unique animal identification number, slide number, and magnification. Relative sebaceous gland areas (red staining areas) were determined using Image-Pro software (Media Cybernetics Inc., Silver Spring, Md.). The area of image analysis was the dermis which included the region from the epidermal-dermal junction to the midline of the tissue demarcated by the central cartilage line. Data was expressed as percentage of the area of the tissue cross section which was red in color, representative of lipid-containing structures, in comparison to the total area analyzed.
In these experiments, the compound of the invention, TOFA and vehicle were applied onto male hamster ears. At the end of treatment, the hamsters were sacrificed and the area of sebaceous glands in the treated area was determined. […]

[3] = tested on: moderate to severe acne patients; settings: oral, at 12 weeks; cited from earlier work
[4] = tested on: SZ95 sebocytes; assay: Inhibition of lipid synthesis in SZ95 sebocytes; format: cell-based, human; settings: 96-well microtiter plate format
Experimental: The immortalized human sebocyte cell line, SZ95, was maintained in culture as described in Zouboulis, C. C. et al., J. Invest. Dermatol. (1999), Vol. 113, pp. 1011-1020. Lipid synthesis was stimulated by treating SZ95 cells with arachidonic acid (AA). For measurement of lipid production and lipid inhibition studies, test compounds were dissolved in dimethylsulfoxide (DMSO) and added at the desired concentration in 96-well microtiter plates. The cells were then cultured for up to 72 hours before the plates were washed 3 times with PBS and a final volume of 200 μL PBS/well was added. […] Plate fluorescence was then quantified using a fluorometric plate reader (excitation wavelength: 490 nm; emission wavelength: 590 nm). Inhibition of lipid levels by the test compound was expressed as the % reduction of the fluorescence of AA-stimulated cells in the presence of the test compound relative to the values obtained for the unstimulated control cells. Cell viability was measured by utilizing the conversion of a tetrazolium reagent (MTS) to a colored-formazan product by live cells. […] The color development of the wells was measured using a plate reader at an absorbance of […]. Effect on cell viability by the test compound was expressed as the % reduction of the absorbance for AA-stimulated cells in the presence of the test compound relative to the values obtained for the untreated control cells.

[5] = 21 consecutive days, 75 mM, ear cross-sections (FIG. 3)

Structure (SMILES): CCCCCCCCCCCCCCOc1ccc(C(=O)O)o1 [TOFA, 5-(tetradecyloxy)-2-furancarboxylic acid]
solubility [1]: 1.5 ± 0.4 mg/mL (≈ 4.62 mM)
inflammatory cell presence in skin sections [2, 5]: No appreciable inflammatory cell presence
tolerability of repeat topical applications ([2]; hamster, in vivo): well-tolerated

Structure (SMILES): CC(c1cc2ccccc2s1)N(O)C(N)=O (centres unmarked) [Zileuton]
reduction in inflammatory lesions [3]: 71%
reduction of sebum lipids [3]: 65%

Structure (SMILES): CCCCC/C=C\C/C=C\C/C=C\C/C=C\CCCC(=O)O [arachidonic acid]
increase of SZ95 sebocyte lipid levels [4]: approximately 5 fold

Now from value to molecule, other results behind:

solubility [1]: 28.9 ± 9.2 mg/mL (≈ 71.1 mM)
Structure (SMILES): CCCCCCCCCCCCCCOc1ccc(C(=O)OCC(F)(F)F)o1 [Compound A, 2,2,2-trifluoroethyl 5-(tetradecyloxy)furan-2-carboxylate]
inflammatory cell presence in skin sections [2, 5]: No appreciable inflammatory cell presence
sebaceous gland area, histological appearance (Oil Red O) [2, 5]: Reduced sebaceous gland area
average gland area lower in comparison to vehicle-treated animals ([2]; after 21 days of application in 40% DMA/30% acetone/30% ethanol (FIG. 2)): 63.5%
sebaceous gland counts versus control values ([2]; samples prepared two weeks after completion of 21-day treatment): significantly lower
sebaceous gland area compared to TOFA and vehicle (FIG. 1) ([2]; topical daily at 75 mM for 21 days in 40% DMA/30% acetone/30% ethanol): ability to reduce sebaceous gland area

solubility [1]: 43 ± 0.5 mg/mL (≈ 117 mM)
Structure (SMILES): CCCCCCCCCCCCCCOc1ccc(C(=O)OC(C)C)o1 [Compound B, isopropyl 5-(tetradecyloxy)furan-2-carboxylate]

solubility [1]: 13.6 ± 1.9 mg/mL (≈ 31.2 mM)
Structure (SMILES): CCCCCCCCCCCCCCOc1ccc(C(=O)OCc2oc(=O)oc2C)o1 [Compound C, (5-methyl-2-oxo-1,3-dioxol-4-yl)methyl 5-(tetradecyloxy)furan-2-carboxylate]
